These results are taken from patent EP1320377B1, “HLA BINDING PEPTIDES AND THEIR USES” (Epimmune Inc., priority 2000, dated 2011).

The assay addresses B*0702 (Homo sapiens, UniProt P01889). Kind of assay: Class I molecular binding assay (peptide binding to purified HLA class I molecule). The note with it: binding value of the peptide for HLA allele B*0702; kind of value and unit not given.

For the sequence SPALNKMFBQI [Peptide 34.0397], the “B*0702” value was 0.1800.
